# Patent US8846698B2, “Pyrrolo[2,3-d]pyrimidine tropomysin-related kinase inhibitors” (Pfizer Limited, priority 2011, dated 2014)
# Target: TRKA (Homo sapiens (Human), UniProt P04629)
# Assay: Isolated TRK enzyme assay (HTRF KinEASE-TK), TRKA
# Type: biochemical
# Conditions: read-out: Trka enzyme (IC50)
# Chain of TRKA (P04629 441-796): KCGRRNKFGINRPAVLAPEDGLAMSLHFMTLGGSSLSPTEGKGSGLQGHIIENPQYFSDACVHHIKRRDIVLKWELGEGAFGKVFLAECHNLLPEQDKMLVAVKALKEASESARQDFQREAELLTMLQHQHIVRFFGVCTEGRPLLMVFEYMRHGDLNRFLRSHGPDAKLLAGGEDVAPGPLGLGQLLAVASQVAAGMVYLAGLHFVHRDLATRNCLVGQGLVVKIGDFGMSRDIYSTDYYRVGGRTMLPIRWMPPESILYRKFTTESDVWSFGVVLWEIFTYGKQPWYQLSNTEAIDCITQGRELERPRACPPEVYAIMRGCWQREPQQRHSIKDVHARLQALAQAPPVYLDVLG
row,Compound,IC50
1,"CC(C)(CO)n1cc(C(=O)c2cncc(NC(=O)Cc3ccc(F)c(F)c3)c2)c2cnc(N)nc21 [Example 568, N-{5-[2-Amino-7-(2-hydroxy-1,1-dimethyl-ethyl)-7H-pyrrolo[2,3-d]pyrimidine-5-carbonyl]-pyridin-3-yl}-2-(3,4-difluoro-phenyl)-acetamide]",12.1 nM
2,"CC(C)(CO)n1cc(C(=O)c2cncc(NC(=O)Cc3ncc(Cl)cn3)c2)c2cnc(N)nc21 [Example 569, N-{5-[2-Amino-7-(2-hydroxy-1,1-dimethyl-ethyl)-7H-pyrrolo[2,3-d]pyrimidine-5-carbonyl]-pyridin-3-yl}-2-(5-chloro-pyrimidin-2-yl)-acetamide]",34.4 nM
3,"N#Cc1ccc(CC(=O)Nc2cncc(C(=O)c3c[nH]c4ncncc34)c2)cc1 [Example 570, 2-(4-Cyano-phenyl)-N-[5-(7H-pyrrolo[2,3-d]pyrimidine-5-carbonyl)-pyridin-3-yl]-acetamide]",6970 nM
4,"CC1(n2cc(C(=O)c3cncc(NC(=O)Cc4ccc(C(F)(F)F)cc4)c3)c3cncnc32)COC1 [Example 571, N-{5-[7-(3-Methyl-oxetan-3-yl)-7H-pyrrolo[2,3-d]pyrimidine-5-carbonyl]-pyridin-3-yl}-2-(4-trifluoromethyl-phenyl)-acetamide]",2.92 nM
5,"CC1(n2cc(C(=O)c3cncc(NC(=O)Cc4cccc(C(F)(F)F)c4)c3)c3cncnc32)COC1 [Example 572, N-{5-[7-(3-Methyl-oxetan-3-yl)-7H-pyrrolo[2,3-d]pyrimidine-5-carbonyl]-pyridin-3-yl}-2-(3-trifluoromethyl-phenyl)-acetamide]",9.5 nM
6,"CC1(n2cc(C(=O)c3cncc(NC(=O)Cc4ccc(C(F)(F)F)c(F)c4)c3)c3cncnc32)COC1 [Example 573, 2-(3-Fluoro-4-trifluoromethyl-phenyl)-N-{5-[7-(3-methyl-oxetan-3-yl)-7H-pyrrolo[2,3-d]pyrimidine-5-carbonyl]-pyridin-3-yl}-acetamide]",17.9 nM
7,"CC1(n2cc(C(=O)c3cncc(NC(=O)c4cccc(C(F)(F)F)c4)c3)c3cncnc32)COC1 [Example 574, N-{5-[7-(3-Methyl-oxetan-3-yl)-7H-pyrrolo[2,3-d]pyrimidine-5-carbonyl]-pyridin-3-yl}-3-trifluoromethyl-benzamide]",14.2 nM
8,"CC1(n2cc(C(=O)c3cncc(NC(=O)c4cccc(OC(F)(F)F)c4)c3)c3cncnc32)COC1 [Example 575, N-{5-[7-(3-Methyl-oxetan-3-yl)-7H-pyrrolo[2,3-d]pyrimidine-5-carbonyl]-pyridin-3-yl}-3-trifluoromethoxy-benzamide]",3.09 nM
9,"CC(C)(CO)n1cc(C(=O)c2cncc(NC(=O)Cn3cc(C4CC4)cn3)c2)c2cnc(N)nc21 [Example 576, N-{5-[2-Amino-7-(2-hydroxy-1,1-dimethyl-ethyl)-7H-pyrrolo[2,3-d]pyrimidine-5-carbonyl]-pyridin-3-yl}-2-(4-cyclopropyl-pyrazol-1-yl)-acetamide]",296 nM
10,"CC(C)(C)n1cc(C(=O)c2cncc(NC(=O)Cn3cc(C4CC4)cn3)c2)c2cnc(N)nc21 [Example 577, N-[5-(2-Amino-7-tert-butyl-7H-pyrrolo[2,3-d]pyrimidine-5-carbonyl)-pyridin-3-yl]-2-(4-cyclopropyl-pyrazol-1-yl)-acetamide]",1.9 nM
11,"Nc1ncc2c(C(=O)c3cncc(NC(=O)Cc4ccc(F)cn4)c3)cn(C34CC(C3)C4)c2n1 [Example 578, N-[5-(2-Amino-7-bicyclo[1.1.1]pent-1-yl-7H-pyrrolo[2,3-d]pyrimidine-5-carbonyl)-pyridin-3-yl]-2-(5-fluoro-pyridin-2-yl)-acetamide]",6.07 nM
12,"CS(=O)(=O)c1cccc(CC(=O)Nc2cncc(C(=O)c3cn(C45CC(C4)C5)c4nc(N)ncc34)c2)c1 [Example 579, N-[5-(2-Amino-7-bicyclo[1.1.1]pent-1-yl-7H-pyrrolo[2,3-d]pyrimidine-5-carbonyl)-pyridin-3-yl]-2-(3-methanesulfonyl-phenyl)-acetamide]",8.11 nM
13,"Nc1ncc2c(C(=O)c3cncc(NC(=O)Cn4ccc(C(F)(F)F)n4)c3)cn(C34CC(C3)C4)c2n1 [Example 580, N-[5-(2-Amino-7-bicyclo[1.1.1]pent-1-yl-7H-pyrrolo[2,3-d]pyrimidine-5-carbonyl)-pyridin-3-yl]-2-(3-trifluoromethyl-pyrazol-1-yl)-acetamide]",0.825 nM
14,"Nc1ncc2c(C(=O)c3cncc(NC(=O)Cn4cc(C(F)(F)F)nn4)c3)cn(C34CC(C3)C4)c2n1 [Example 581, N-[5-(2-Amino-7-bicyclo[1.1.1]pent-1-yl-7H-pyrrolo[2,3-d]pyrimidine-5-carbonyl)-pyridin-3-yl]-2-(4-trifluoromethyl-[1,2,3]triazol-1-yl)-acetamide]",3.21 nM
15,"N#Cc1ccc(CC(=O)Nc2cncc(C(=O)c3cn(C45CC(C4)C5)c4nc(N)ncc34)c2)cc1 [Example 582, N-[5-(2-Amino-7-bicyclo[1.1.1]pent-1-yl-7H-pyrrolo[2,3-d]pyrimidine-5-carbonyl)-pyridin-3-yl]-2-(4-cyano-phenyl)-acetamide]",9.79 nM
16,"Nc1ncc2c(C(=O)c3cncc(NC(=O)Cc4ccc(Cl)cn4)c3)cn(C34CC(C3)C4)c2n1 [Example 583, N-[5-(2-Amino-7-bicyclo[1.1.1]pent-1-yl-7H-pyrrolo[2,3-d]pyrimidine-5-carbonyl)-pyridin-3-yl]-2-(5-chloro-pyridin-2-yl)-acetamide]",0.681 nM
17,"CC(C)n1cc(C(=O)c2c[nH]c(=O)c(NC(=O)Cc3ccc(C#N)cc3)c2)c2cncnc21 [Example 584, 2-(4-cyanophenyl)-N-(2-oxo-5-{[7-(propan-2-yl)-7H-pyrrolo[2,3-d]pyrimidin-5-yl]carbonyl}-1,2-dihydropyridin-3-yl)acetamide]",581 nM
18,"CC(C)n1cc(C(=O)c2c[nH]c(=O)c(NC(=O)COc3ccccc3OC(F)(F)F)c2)c2cncnc21 [Example 585, N-(2-oxo-5-{[7-(propan-2-yl)-7H-pyrrolo[2,3-d]pyrimidin-5-yl]carbonyl}-1,2-dihydropyridin-3-yl)-2-[2-(trifluoromethoxy)phenoxy]acetamide]",36.7 nM
19,"CC(C)n1cc(C(=O)c2c[nH]c(=O)c(NC(=O)Cc3coc(C4CC4)n3)c2)c2cncnc21 [Example 586, 2-(2-cyclopropyl-1,3-oxazol-4-yl)-N-(2-oxo-5-{[7-(propan-2-yl)-7H-pyrrolo[2,3-d]pyrimidin-5-yl]carbonyl}-1,2-dihydropyridin-3-yl)acetamide]",1000 nM
20,"Cc1cc(C(F)(F)F)nn1CC(=O)Nc1cc(C(=O)c2cn(C(C)C)c3ncncc23)c[nH]c1=O [Example 587, 2-[5-methyl-3-(trifluoromethyl)-1H-pyrazol-1-yl]-N-(2-oxo-5-{[7-(propan-2-yl)-7H-pyrrolo[2,3-d]pyrimidin-5-yl]carbonyl}-1,2-dihydropyridin-3-yl)acetamide]",20.5 nM
21,"CC(C)n1cc(C(=O)c2c[nH]c(=O)c(NC(=O)Cc3ccc4cccnc4c3)c2)c2cncnc21 [Example 588, N-(2-oxo-5-{[7-(propan-2-yl)-7H-pyrrolo[2,3-d]pyrimidin-5-yl]carbonyl}-1,2-dihydropyridin-3-yl)-2-(quinolin-7-yl)acetamide]",334 nM
22,"CC(C)n1cc(C(=O)c2c[nH]c(=O)c(NC(=O)Cc3ccc(Cl)cc3)c2)c2cncnc21 [Example 589, 2-(4-chlorophenyl)-N-(2-oxo-5-{[7-(propan-2-yl)-7H-pyrrolo[2,3-d]pyrimidin-5-yl]carbonyl}-1,2-dihydropyridin-3-yl)acetamide]",31.3 nM
23,"CC(C)n1cc(C(=O)c2c[nH]c(=O)c(NC(=O)Cc3ccc(Cl)cn3)c2)c2cncnc21 [Example 590, 2-(5-chloropyridin-2-yl)-N-(2-oxo-5-{[7-(propan-2-yl)-7H-pyrrolo[2,3-d]pyrimidin-5-yl]carbonyl}-1,2-dihydropyridin-3-yl)acetamide]",71.2 nM
24,"CC(C)n1cc(C(=O)c2c[nH]c(=O)c(NC(=O)Cn3cc(C(F)(F)F)nn3)c2)c2cncnc21 [Example 591, N-(2-oxo-5-{[7-(propan-2-yl)-7H-pyrrolo[2,3-d]pyrimidin-5-yl]carbonyl}-1,2-dihydropyridin-3-yl)-2-[4-(trifluoromethyl)-1H-1,2,3-triazol-1-yl]acetamide]",142 nM
25,"N-(5-(7-(1,3-dihydroxy-2-methylpropan-2-yl)-7H-pyrrolo[2,3-d]pyrimidine-5-carbonyl)pyridin-3-yl)-2-(3-trifluoromethoxy)phenyl)acetamide [Example 262]",32.3 nM
